The values that follow come from ChEMBL document CHEMBL1806399, “Synthesis and SAR of new pyrazolo[4,3-h]quinazoline-3-carboxamide derivatives as potent and selective MPS1 kinase inhibitors” (Bioorg Med Chem Lett, 2011).

In brackets after ≈: the same amount, converted by molar mass.

Data set [1] has as its target Serine/threonine-protein kinase PLK1 (Homo sapiens, UniProt P53350). In words: Inhibition of PLK1 assessed as [33P]-gamma-ATP incorporation into substrate by gamma counting.
Data set [2] has as its system A2780. In words: Antiproliferative activity in human A2780 cells after 72 hrs by CellTiter-Glo assay. The following applies: A2780, 72 h. Format: functional, cell-based. (In general: In ATP-based viability assays light output follows the ATP content of the culture.)
Data set [3] is described as follows: Solubility of the compound at pH 7. Format: physicochemical. As to conditions: buffer.
Data set [4] relates to U2OS. Put plainly: Inhibition of mitosis in human U2OS cells assessed as histone H3 phosphorylation at Ser 10 residue after 2 hrs by immunoassay. It counts as functional, cell-based.
Data set [5] has as its system Mus musculus. Put plainly: Antitumor activity against human A2780 cells xenografted in mouse assessed as tumor growth inhibition at 90 mg/kg, po for seven consecutive days. As to conditions: read-out: GI. It counts as functional. On the technique in general: A xenograft is tissue or cells of one species grown in another, often human tumour cells in immunodeficient mice.

The test system of data set [6] is Mus musculus. Put plainly: Toxicity in mouse assessed as body weight loss at 90 mg/kg, po for seven consecutive days. It counts as organism-based. Details: dose 90 mg/kg, route oral. The following applies: in vivo.

Serine/threonine-protein kinase PLK1, sequence (P53350 whole entry): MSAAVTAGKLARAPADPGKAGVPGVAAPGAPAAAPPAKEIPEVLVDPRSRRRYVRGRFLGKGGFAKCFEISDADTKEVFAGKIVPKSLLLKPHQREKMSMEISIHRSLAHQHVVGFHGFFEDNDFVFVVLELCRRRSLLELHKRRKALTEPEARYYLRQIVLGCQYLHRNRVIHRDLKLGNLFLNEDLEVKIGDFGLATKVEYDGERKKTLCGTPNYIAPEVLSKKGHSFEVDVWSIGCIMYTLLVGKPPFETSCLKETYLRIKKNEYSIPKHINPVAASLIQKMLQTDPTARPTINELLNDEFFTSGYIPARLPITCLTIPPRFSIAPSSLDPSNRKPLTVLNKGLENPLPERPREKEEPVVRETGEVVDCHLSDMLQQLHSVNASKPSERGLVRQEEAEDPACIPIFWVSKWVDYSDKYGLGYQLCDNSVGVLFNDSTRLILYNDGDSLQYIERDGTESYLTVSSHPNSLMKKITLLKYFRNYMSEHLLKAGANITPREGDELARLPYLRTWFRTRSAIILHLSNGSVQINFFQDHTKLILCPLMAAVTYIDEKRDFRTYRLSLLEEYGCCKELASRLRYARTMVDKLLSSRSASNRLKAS

Turning to `CCc1cccc(CC)c1NC(=O)c1nn(C)c2c1CCc1cnc(Nc3ccc(C(=O)NC4CCN(C)CC4)cc3OC(F)(F)F)nc1-2`, the IC50 (as a rule, the concentration that inhibits the measured activity by half) in data set [1] is greater than 10 µM; in data set [2], 1000 nM; in data set [4], 32 nM. Besides, the concentration in solution in data set [3] (solubility) came to 45 µM (≈ 30.5 µg/mL). Moreover, in data set [5], the inhibition in vivo at 90 mg/kg is 53%. In data set [6], the Activity entry is on record as “Non-toxic”.
